Measured values published in paper PMC5829162, “Rational Design, Synthesis and Biological Evaluation of Pyrimidine-4,6-diamine derivatives as Type-II inhibitors of FLT3 Selective Against c-KIT” (Scientific Reports, 2018).
Several values for one entry are separate records, joined by “and”; a condition that tells them apart may be missing. Equal values may be shown once.

Legend:
FLT3 kinase = target: T1, FLT3 kinase (Homo sapiens, UniProt P36888); test: Biochemical enzyme inhibition assay (microfluidics, Caliper EZ Reader II), FLT3; conditions: for IC50: in vitro kinase assay, 60 min pre-incubation, ATP 190 µM, three independent experiments, read-out: FLT3 IC50 (nM) ± SD; for LE: ligand efficiency for FLT3 inhibition
T1 construct: purchased Invitrogen
T1 sequence (P36888 27-993): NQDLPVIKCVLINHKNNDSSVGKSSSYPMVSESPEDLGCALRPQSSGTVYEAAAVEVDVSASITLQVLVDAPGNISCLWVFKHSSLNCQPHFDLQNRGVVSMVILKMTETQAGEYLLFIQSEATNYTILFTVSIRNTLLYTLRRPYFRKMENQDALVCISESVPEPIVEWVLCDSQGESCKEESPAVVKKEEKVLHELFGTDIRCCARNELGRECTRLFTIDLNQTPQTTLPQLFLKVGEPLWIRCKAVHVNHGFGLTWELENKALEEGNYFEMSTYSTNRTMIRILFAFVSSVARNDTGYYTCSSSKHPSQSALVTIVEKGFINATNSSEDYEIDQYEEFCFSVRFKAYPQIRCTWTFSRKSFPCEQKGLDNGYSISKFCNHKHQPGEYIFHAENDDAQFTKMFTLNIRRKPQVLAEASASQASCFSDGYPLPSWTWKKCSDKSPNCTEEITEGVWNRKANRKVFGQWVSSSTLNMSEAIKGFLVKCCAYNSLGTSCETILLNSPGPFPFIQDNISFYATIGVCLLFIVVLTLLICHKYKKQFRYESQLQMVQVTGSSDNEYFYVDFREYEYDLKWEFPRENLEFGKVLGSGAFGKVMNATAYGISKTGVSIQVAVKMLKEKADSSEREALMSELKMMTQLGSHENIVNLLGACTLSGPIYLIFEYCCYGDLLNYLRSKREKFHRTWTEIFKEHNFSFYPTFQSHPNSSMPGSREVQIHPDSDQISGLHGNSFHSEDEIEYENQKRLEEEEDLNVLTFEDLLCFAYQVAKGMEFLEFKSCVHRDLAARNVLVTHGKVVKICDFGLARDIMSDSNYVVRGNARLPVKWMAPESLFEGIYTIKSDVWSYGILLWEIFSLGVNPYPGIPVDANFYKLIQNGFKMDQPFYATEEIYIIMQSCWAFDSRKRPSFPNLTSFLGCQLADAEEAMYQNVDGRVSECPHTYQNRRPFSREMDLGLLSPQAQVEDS
Description: Kinase activity was measured in a microfluidics assay that monitors the separation of a phosphorylated product from substrate[31],[32]. […] After, 1 μL was transferred into a 384-well polypropylene assay plate (Greiner, Frickenhausen, Germany). The FLT3 enzyme (Invitrogen™, Grand Island, USA) was diluted in kinase buffer to a concentration of 2 nM and 5 µL of the enzyme mixture was transferred to the assay plate. The inhibitors/FLT3 enzyme were incubated for 60 minutes with minor shaking. […] For positive control, no inhibitor was added. For negative control, no enzyme was added. For running control, quizartinib was utilized. The plate was run until 10–20% conversion based on the positive control wells. The following separation conditions were utilized: upstream voltage −500V; downstream voltage, −1900V; chip pressure −0.8. Percent inhibition was measured for each well comparing starting peptide to phosphorylated product peaks relative to the baseline. Dose response curves, spanning the IC50 dose, were generated in GraphPad Prisim 6 and fit to an exponential one-phase decay line and IC50 values were obtained from the half-life value of the curve. IC50 values were generated in duplicate and error was calculated from the standard deviation between values.
S10. Biochemical Inhibition Assay:1,2 Kinase activity was measured in a microfluidics assay that monitors the separation of a phosphorylated product from substrate. The assay was run using a 12-sipper chip on a Caliper EZ Reader II (PerkinElmer®, Walthman, USA) with separation […]
Walthman, USA]). In 96-well polypropylene plates (Greiner, Frickenhausen, Germany) […]
After, 1 μL was transferred into a 384-well polypropylene assay plate (Greiner, Frickenhausen, Germany). The FLT3 enzyme (Invitrogen™, Grand Island, USA) was diluted in kinase buffer to a concentration of 2 nM and 5 µL of the enzyme mixture was transferred to the assay plate. The inhibitors/FLT3 enzyme were incubated for 60 minutes with minor shaking. A substrate mix was prepared containing ATP (Ambresco®, Solon, USA) and […]
USA) dissolved in kinase buffer, and 5 µL of the substrate mix was added to the assay plate.
For positive control, no inhibitor was added. For negative control, no enzyme was added. For running control, quizartinib was utilized. The plate was run until 10-20% conversion based on the positive control wells. The following separation conditions were utilized: upstream voltage -500V; downstream voltage, -1900V; chip pressure - 0.8. Percent inhibition was measured for each well comparing starting peptide to phosphorylated product peaks relative to the baseline. Dose response curves, spanning the IC50 dose, were generated in GraphPad Prisim 6 and fit to an exponential one-phase decay line and IC50 values were obtained from the half-life value of the curve. IC50 values were generated in duplicate and error was calculated from the standard deviation between values. […]

Row | Compound | IC50 (FLT3 kinase) | LE (FLT3 kinase) | melting point [°C] | fold less active than 13a on FLT3 (FLT3 kinase; enzymatic FLT3 IC50 compared with 13a) [fold]
1 | O=C(Cc1ccc(Nc2cc(NCCCN3CCCC3)ncn2)cc1)Nc1cccc(C(F)(F)F)c1 [13ab, 2-(4-(6-(3-(Pyrrolidin-1-yl)propylamino)pyrimidin-4-ylamino)phenyl)-N-(3-(trifluoromethyl)phenyl)acetamide] | 9170 ± 236 nM | 0.19 |  | 
2 | CS(=O)(=O)c1ccc(Nc2cc(Nc3ccc(CC(=O)Nc4cccc(F)c4)cc3)ncn2)cc1 [13ac, 2-(4-(6-(4-(Methylsulfonyl)phenylamino)pyrimidin-4-ylamino)phenyl)-N-(3-fluorophenyl)acetamide] | 11710 ± 106 nM | 0.19 |  | 
3 | CN1CCN(c2cc(Nc3ccc(CC(=O)NC4CC4)cc3)ncn2)CC1 [13ah, 2-(4-(6-(4-Methylpiperazin-1-yl)pyrimidin-4-ylamino)phenyl)-N-cyclopropyl acetamide] | 13560 ± 102 nM | 0.25 |  | 
4 | O=C(Cc1ccc(Nc2cc(N3CCOCC3)ncn2)cc1)NC1CC1 [13ai, 2-(4-(6-Morpholinopyrimidin-4-ylamino)phenyl)-N-cyclopropylacetamide] | 15100 ± 168 nM | 0.25 | 110 to 112 | 
5 | Cn1nc(C(C)(C)C)cc1NC(=O)Cc1ccc(Nc2cc(NCCCN3CCCCC3)ncn2)cc1 [13c, 2-(4-(6-(3-(Piperidin-1-yl)propylamino)pyrimidin-4-ylamino)phenyl)-N-(3-tert-butyl-1-methyl-1H-pyrazol-5-yl)acetamide] | 129.3 ± 0.9 nM | 0.26 |  | 
6 | CC(C)(C)c1cc(NC(=O)Cc2ccc(Nc3cc(Nc4ccc(S(C)(=O)=O)cc4)ncn3)cc2)n(-c2ccc(F)cc2)n1 [13g, 2-(4-(6-(4-(Methylsulfonyl)phenylamino)pyrimidin-4-ylamino)phenyl)-N-(3-tert-butyl-1-(4-fluorophenyl)-1H-pyrazol-5-yl)acetamide] | 3230 ± 556 nM | 0.17 | 168 to 170 | 
7 | Cc1ccc(-n2nc(C(C)(C)C)cc2NC(=O)Cc2ccc(Nc3cc(Nc4ccc(S(C)(=O)=O)cc4)ncn3)cc2)cc1 [13h, 2-(4-(6-(4-(Methylsulfonyl)phenylamino)pyrimidin-4-ylamino)phenyl)-N-(3-tert-butyl-1-p-tolyl-1H-pyrazol-5-yl)acetamide] | 4840 ± 170 nM | 0.16 | 155 to 157 | 
8 | Cn1nc(C(C)(C)C)cc1NC(=O)Cc1ccc(Nc2cc(N3CCOCC3)ncn2)cc1 [13i, 2-(4-(6-Morpholinopyrimidin-4-ylamino)phenyl)-N-(3-tert-butyl-1-methyl-1H-pyrazol-5-yl)acetamide] | 428 ± 99 nM | 0.27 |  | 
9 | Cn1nc(C(C)(C)C)cc1NC(=O)Cc1ccc(Nc2cccc(Nc3ccc(S(C)(=O)=O)cc3)n2)cc1 [compound 18, 2-(4-(6-(4-(Methylsulfonyl)phenylamino)pyridin-2-ylamino)phenyl)-N-(3-tert-butyl-1-methyl-1H-pyrazol-5-yl)acetamide] | 5720 nM |  |  | > 100
10 | N-(4-Fluorobenzyl)-2-(4-(6-(3-(pyrrolidin-1-yl)propylamino)pyrimidin-4-yloxy)phenyl)acetamide [13w] | 4560 ± 330 nM | 0.21 |  | 

The remaining lines, values ahead:

Row | IC50 (FLT3 kinase) | LE (FLT3 kinase) | melting point [°C] | fold less active than 13a on FLT3 (FLT3 kinase; enzymatic FLT3 IC50 compared with 13a) [fold] | Compound
11 | 7878 ± 29 nM | 0.20 | 228 to 230 |  | CS(=O)(=O)c1ccc(Nc2cc(Oc3ccc(CC(=O)Nc4cccc(F)c4)cc3)ncn2)cc1 [13aa, 2-(4-(6-(4-(Methylsulfonyl)phenylamino)pyrimidin-4-yloxy)phenyl)-N-(3-fluorophenyl)acetamide]
12 | 12800 ± 834 nM | 0.26 | 124 to 126 |  | CNc1cc(Oc2ccc(CC(=O)Nc3ccc(F)cc3)cc2)ncn1 [13ad, 2-(4-(6-(Methylamino)pyrimidin-4-yloxy)phenyl)-N-(4-fluorophenyl)acetamide]
13 | 5550 ± 169 nM | 0.23 | 110 to 112 |  | CS(=O)(=O)c1ccc(Nc2cc(Nc3ccc(CC(=O)NC4CC4)cc3)ncn2)cc1 [13ae, 2-(4-(6-(4-(Methylsulfonyl)phenylamino)pyrimidin-4-ylamino)phenyl)-N-cyclopropylacetamide]
14 | 8060 ± 274 nM | 0.23 |  |  | O=C(Cc1ccc(Nc2cc(Nc3cccc(C(F)(F)F)c3)ncn2)cc1)NC1CC1 [13af, 2-(4-(6-(3-(Trifluoromethyl)phenylamino)pyrimidin-4-ylamino)phenyl)-N-cyclopropylacetamide]
15 | 7580 ± 132 nM | 0.23 | 102 to 104 |  | CCCCNc1cc(Oc2ccc(CC(=O)Nc3nc(C(C)(C)C)cs3)cc2)ncn1 [13aj, 2-(4-(6-(Butylamino)pyrimidin-4-yloxy)phenyl)-N-(4-tert-butylthiazol-2-yl)acetamide]
16 | 13600 ± 494 nM | 0.16 | 102 to 104 |  | COc1ccc(CNC(=O)Cc2ccc(Oc3cc(NC4CCN(Cc5ccccc5)CC4)ncn3)cc2)c(OC)c1 [13ak, N-(2,4-Dimethoxybenzyl)-2-(4-(6-(1-benzylpiperidin-4-ylamino)pyrimidin-4-yloxy)phenyl)acetamide]
17 | 268 ± 25 nM | 0.24 |  |  | Cn1nc(C(C)(C)C)cc1NC(=O)Cc1ccc(Oc2cc(Nc3ccc(S(C)(=O)=O)cc3)ncn2)cc1 [13e, 2-(4-(6-(4-(Methylsulfonyl)phenylamino)pyrimidin-4-yloxy)phenyl)-N-(3-tert-butyl-1-methyl-1H-pyrazol-5-yl)acetamide]
18 | 961 ± 33.7 nM | 0.22 | 140 to 142 |  | Cn1nc(C(C)(C)C)cc1NC(=O)Cc1ccc(Oc2cc(Nc3cccc(C(F)(F)F)c3)ncn2)cc1 [13f, 2-(4-(6-(3-(Trifluoromethyl)phenylamino)pyrimidin-4-yloxy)phenyl)-N-(3-tert-butyl-1-methyl-1H-pyrazol-5-yl)acetamide]
19 | 6020 ± 122 nM | 0.18 | 110 to 112 |  | CN1CCN(c2cc(Nc3ccc(CC(=O)Nc4cc(C(C)(C)C)nn4-c4ccc(Br)cc4)cc3)ncn2)CC1 [13j, 2-(4-(6-(4-Methylpiperazin-1-yl)pyrimidin-4-ylamino)phenyl)-N-(3-tert-butyl-1-(4-bromophenyl)-1H-pyrazol-5-yl)acetamide]
20 | 567 nM and 568 nM | 0.23 | 120 to 122 |  | CC(C)(C)c1cc(NC(=O)Cc2ccc(Oc3cc(Nc4cccc(C(F)(F)F)c4)ncn3)cc2)no1 [13l, 2-(4-(6-(3-(Trifluoromethyl)phenylamino)pyrimidin-4-yloxy)phenyl)-N-(5-tert-butylisoxazol-3-yl)acetamide]
21 | 6460 ± 251 nM | 0.19 |  |  | O=C(Cc1ccc(Nc2cc(NCCCN3CCCCC3)ncn2)cc1)Nc1ccc(OC(F)(F)F)cc1 [13y, 2-(4-(6-(3-(Piperidin-1-yl)propylamino)pyrimidin-4-ylamino)phenyl)-N-(4-(trifluoromethoxy)phenyl)acetamide]
